Results as given in US9108944B2, “Androgen receptor modulators and uses thereof” (ARAGON PHARMACEUTICALS, INC., priority 2010, dated 2015).

Columns and labels:
AR-VP16 [1] = biological target: T1, AR-VP16 (Homo sapiens, UniProt P10275); test: AR-VP16 DNA Binding Assay, antagonist mode (HepG2 cells, 0.1 nM R1881); assay type: cell-based
T1 sequence (P10275 560-920 limits assumed): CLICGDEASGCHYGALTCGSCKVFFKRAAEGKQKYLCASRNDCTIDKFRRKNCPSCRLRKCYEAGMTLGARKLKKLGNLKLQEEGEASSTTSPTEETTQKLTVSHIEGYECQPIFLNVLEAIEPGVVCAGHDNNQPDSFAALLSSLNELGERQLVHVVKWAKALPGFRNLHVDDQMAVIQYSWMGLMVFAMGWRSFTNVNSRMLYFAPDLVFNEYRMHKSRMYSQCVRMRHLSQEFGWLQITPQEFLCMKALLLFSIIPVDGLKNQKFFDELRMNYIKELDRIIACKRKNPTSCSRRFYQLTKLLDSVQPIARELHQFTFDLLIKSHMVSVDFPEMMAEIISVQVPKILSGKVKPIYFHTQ
In short: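 HepG2 cells transiently transfected with AR-VP16 (Lipofectin), incubated overnight, then treated with compound in RPMI with charcoal-stripped serum. Antagonist mode adds R1881 at 0.1 nM final. Cells lysed after 48 h incubation for read-out.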

AR-VP16 [2] = biological target: T1, AR-VP16; test: AR-VP16 DNA Binding Assay, agonist mode (HepG2 cells); assay type: cell-based; details: Emax >20x DMSO control = agonist

CN1CCN(CCOc2ccc(N3C(=S)N(c4cnc(C#N)c(C(F)(F)F)c4)C(=O)C34CCC4)cc2)CC1 [Compound 178, 5-(5-(4-(2-(4-Methylpiperazin-1-yl)ethoxy)phenyl)-8-oxo-6-thioxo-5,7-diazaspiro[3.4]octan-7-yl)-3-(trifluoromethyl)picolinonitrile]
IC50 (AR-VP16 [1]): < 1000 nM | ARVP16 DNA Binding Assay (Agonist mode): Agonist? (AR-VP16 [2]): No (Agonist defined as a compound whose Emax in the ARVP16 DNA Binding Assay (Agonist mode) is >20x DMSO control)

N#Cc1ncc(N2C(=O)C3(CCC3)N(c3ccc(OCCC4CCOCC4)c(F)c3)C2=S)cc1C(F)(F)F [Compound 180, 5-(5-(3-Fluoro-4-(2-(tetrahydro-2H-pyran-4-yl)ethoxy)phenyl)-8-oxo-6-thioxo-5,7-diazaspiro[3.4]octan-7-yl)-3-(trifluoromethyl)picolinonitrile]
IC50 (AR-VP16 [1]): < 1000 nM | ARVP16 DNA Binding Assay (Agonist mode): Agonist? (AR-VP16 [2]): Yes (Agonist defined as a compound whose Emax in the ARVP16 DNA Binding Assay (Agonist mode) is >20x DMSO control)

CN1CCN(CCCOc2ccc(N3C(=S)N(c4cnc(C#N)c(C(F)(F)F)c4)C(=O)C34CCC4)c(F)c2)CC1 [Compound 184, 5-(5-(2-Fluoro-4-(3-(4-methylpiperazin-1-yl)propoxy)phenyl)-8-oxo-6-thioxo-5,7-diazaspiro[3.4]octan-7-yl)-3-(trifluoromethyl)picolinonitrile]
IC50 (AR-VP16 [1]): < 1000 nM | ARVP16 DNA Binding Assay (Agonist mode): Agonist? (AR-VP16 [2]): Yes (Agonist defined as a compound whose Emax in the ARVP16 DNA Binding Assay (Agonist mode) is >20x DMSO control)

N#Cc1ncc(N2C(=O)C3(CCC3)N(c3ccc(OCCN4CCS(=O)(=O)CC4)c(F)c3)C2=S)cc1C(F)(F)F [Compound 186, 5-(5-(4-(2-(1,1-Dioxidothiomorpholino)ethoxy)-3-fluorophenyl)-8-oxo-6-thioxo-5,7-diazaspiro[3.4]octan-7-yl)-3-(trifluoromethyl)picolinonitrile]
IC50 (AR-VP16 [1]): < 1000 nM | ARVP16 DNA Binding Assay (Agonist mode): Agonist? (AR-VP16 [2]): Yes (Agonist defined as a compound whose Emax in the ARVP16 DNA Binding Assay (Agonist mode) is >20x DMSO control)

N#Cc1ncc(N2C(=O)C3(CCC3)N(c3ccc(OCCN4CCCCC4)cc3F)C2=S)cc1C(F)(F)F [Compound 187, 5-(5-(2-Fluoro-4-(2-(piperidin-1-yl)ethoxy)phenyl)-8-oxo-6-thioxo-5,7-diazaspiro[3.4]octan-7-yl)-3-(trifluoromethyl)picolinonitrile]
IC50 (AR-VP16 [1]): < 1000 nM | ARVP16 DNA Binding Assay (Agonist mode): Agonist? (AR-VP16 [2]): No (Agonist defined as a compound whose Emax in the ARVP16 DNA Binding Assay (Agonist mode) is >20x DMSO control)

N#Cc1ncc(N2C(=O)C3(CCC3)N(c3ccc(OCCc4ccccc4)c(F)c3)C2=S)cc1C(F)(F)F [Compound 188, 5-(5-(3-Fluoro-4-phenethoxyphenyl)-8-oxo-6-thioxo-5,7-diazaspiro[3.4]octan-7-yl)-3-(trifluoromethyl)picolinonitrile]
IC50 (AR-VP16 [1]): < 1000 nM | ARVP16 DNA Binding Assay (Agonist mode): Agonist? (AR-VP16 [2]): No (Agonist defined as a compound whose Emax in the ARVP16 DNA Binding Assay (Agonist mode) is >20x DMSO control)

N#Cc1ncc(N2C(=O)C3(CCC3)N(c3ccc(OCCc4ncccn4)c(F)c3)C2=S)cc1C(F)(F)F [Compound 189, 5-(5-(3-Fluoro-4-(2-(pyrimidin-2-yl)ethoxy)phenyl)-8-oxo-6-thioxo-5,7-diazaspiro[3.4]octan-7-yl)-3-(trifluoromethyl)picolinonitrile]
IC50 (AR-VP16 [1]): < 1000 nM | ARVP16 DNA Binding Assay (Agonist mode): Agonist? (AR-VP16 [2]): No (Agonist defined as a compound whose Emax in the ARVP16 DNA Binding Assay (Agonist mode) is >20x DMSO control)

CN1CCC(Oc2ccc(N3C(=S)N(c4cnc(C#N)c(C(F)(F)F)c4)C(=O)C34CCC4)c(F)c2)CC1 [Compound 190, 5-(5-(2-Fluoro-4-((1-methylpiperidin-4-yl)oxy)phenyl)-8-oxo-6-thioxo-5,7-diazaspiro[3.4]octan-7-yl)-3-(trifluoromethyl)picolinonitrile]
IC50 (AR-VP16 [1]): < 1000 nM | ARVP16 DNA Binding Assay (Agonist mode): Agonist? (AR-VP16 [2]): No (Agonist defined as a compound whose Emax in the ARVP16 DNA Binding Assay (Agonist mode) is >20x DMSO control)

Cc1cc(N2C(=O)C3(CCC3)N(c3ccc(OC4CCN(C)CC4)cc3)C2=S)cnc1C#N [Compound 191, 3-Methyl-5-(5-(4-((1-methylpiperidin-4-yl)oxy)phenyl)-8-oxo-6-thioxo-5,7-diazaspiro[3.4]octan-7-yl)picolinonitrile]
IC50 (AR-VP16 [1]): > 1000 nM | ARVP16 DNA Binding Assay (Agonist mode): Agonist? (AR-VP16 [2]): No (Agonist defined as a compound whose Emax in the ARVP16 DNA Binding Assay (Agonist mode) is >20x DMSO control)

Cc1cc(N2C(=O)C3(CCC3)N(c3ccc(OC4CCN(C)CC4)c(F)c3)C2=S)cnc1C#N [Compound 192, 5-(5-(3-Fluoro-4-((1-methylpiperidin-4-yl)oxy)phenyl)-8-oxo-6-thioxo-5,7-diazaspiro[3.4]octan-7-yl)-3-methylpicolinonitrile]
IC50 (AR-VP16 [1]): > 1000 nM | ARVP16 DNA Binding Assay (Agonist mode): Agonist? (AR-VP16 [2]): No (Agonist defined as a compound whose Emax in the ARVP16 DNA Binding Assay (Agonist mode) is >20x DMSO control)

Cc1cc(N2C(=O)C3(CCC3)N(c3ccc(OC4CCSCC4)cc3)C2=S)cnc1C#N [Compound 195, 3-Methyl-5-(8-oxo-5-(4-((tetrahydro-2H-thiopyran-4-yl)oxy)phenyl)-6-thioxo-5,7-diazaspiro[3.4]octan-7-yl)picolinonitrile]
IC50 (AR-VP16 [1]): < 1000 nM | ARVP16 DNA Binding Assay (Agonist mode): Agonist? (AR-VP16 [2]): No (Agonist defined as a compound whose Emax in the ARVP16 DNA Binding Assay (Agonist mode) is >20x DMSO control)

Cc1cc(N2C(=O)C(C)(C)N(c3ccc(OC4CCN(C)CC4)cc3)C2=S)cnc1C#N [Compound 197, 5-(4,4-Dimethyl-3-(4-((1-methylpiperidin-4-yl)oxy)phenyl)-5-oxo-2-thioxoimidazolidin-1-yl)-3-methylpicolinonitrile]
IC50 (AR-VP16 [1]): > 1000 nM | ARVP16 DNA Binding Assay (Agonist mode): Agonist? (AR-VP16 [2]): No (Agonist defined as a compound whose Emax in the ARVP16 DNA Binding Assay (Agonist mode) is >20x DMSO control)

N#Cc1ncc(N2C(=O)C3(CCC3)N(c3ccc(OC4CCOCC4)cc3)C2=S)cc1C(F)(F)F [Compound 198, 5-(8-Oxo-5-(4-((tetrahydro-2H-pyran-4-yl)oxy)phenyl)-6-thioxo-5,7-diazaspiro[3.4]octan-7-yl)-3-(trifluoromethyl)picolinonitrile]
IC50 (AR-VP16 [1]): < 1000 nM | ARVP16 DNA Binding Assay (Agonist mode): Agonist? (AR-VP16 [2]): No (Agonist defined as a compound whose Emax in the ARVP16 DNA Binding Assay (Agonist mode) is >20x DMSO control)

Cc1cc(N2C(=O)C3(CCC3)N(c3ccc(OCCN4CCN(C)CC4)cc3)C2=S)cnc1C#N [Compound 200, 3-Methyl-5-(5-(4-(2-(4-methylpiperazin-1-yl)ethoxy)phenyl)-8-oxo-6-thioxo-5,7-diazaspiro[3.4]octan-7-yl)picolinonitrile]
IC50 (AR-VP16 [1]): < 1000 nM | ARVP16 DNA Binding Assay (Agonist mode): Agonist? (AR-VP16 [2]): Yes (Agonist defined as a compound whose Emax in the ARVP16 DNA Binding Assay (Agonist mode) is >20x DMSO control)

Cc1cc(N2C(=O)C3(CCC3)N(c3ccc(OC4CCS(=O)(=O)CC4)cc3)C2=S)cnc1C#N [Compound 201, 5-(5-(4-((1,1-Dioxidotetrahydro-2H-thiopyran-4-yl)oxy)phenyl)-8-oxo-6-thioxo-5,7-diazaspiro[3.4]octan-7-yl)-3-methylpicolinonitrile]
IC50 (AR-VP16 [1]): < 1000 nM | ARVP16 DNA Binding Assay (Agonist mode): Agonist? (AR-VP16 [2]): No (Agonist defined as a compound whose Emax in the ARVP16 DNA Binding Assay (Agonist mode) is >20x DMSO control)

COc1ccc(N2C(=S)N(c3cnc(C#N)c(C(F)(F)F)c3)C(=O)C23CCC3)cc1F [Compound 203, 5-(5-(3-Fluoro-4-methoxyphenyl)-8-oxo-6-thioxo-5,7-diazaspiro[3.4]octan-7-yl)-3-(trifluoromethyl)picolinonitrile]
IC50 (AR-VP16 [1]): < 1000 nM | ARVP16 DNA Binding Assay (Agonist mode): Agonist? (AR-VP16 [2]): No (Agonist defined as a compound whose Emax in the ARVP16 DNA Binding Assay (Agonist mode) is >20x DMSO control)

COc1ccc(N2C(=S)N(c3cnc(C#N)c(C)c3)C(=O)C23CCC3)cc1 [Compound 205, 5-(5-(4-Methoxyphenyl)-8-oxo-6-thioxo-5,7-diazaspiro[3.4]octan-7-yl)-3-methylpicolinonitrile]
IC50 (AR-VP16 [1]): < 1000 nM | ARVP16 DNA Binding Assay (Agonist mode): Agonist? (AR-VP16 [2]): No (Agonist defined as a compound whose Emax in the ARVP16 DNA Binding Assay (Agonist mode) is >20x DMSO control)

N#Cc1ncc(N2C(=O)C3(CCC3)N(c3ccc(Oc4cnccn4)cc3)C2=S)cc1C(F)(F)F [Compound 207, 5-(8-Oxo-5-(4-(pyrazin-2-yloxy)phenyl)-6-thioxo-5,7-diazaspiro[3.4]octan-7-yl)-3-(trifluoromethyl)picolinonitrile]
IC50 (AR-VP16 [1]): < 1000 nM | ARVP16 DNA Binding Assay (Agonist mode): Agonist? (AR-VP16 [2]): No (Agonist defined as a compound whose Emax in the ARVP16 DNA Binding Assay (Agonist mode) is >20x DMSO control)

Cc1cc(N2C(=O)C3(CCC3)N(c3ccc(OC4CCNCC4)cc3)C2=S)cnc1C#N [Compound 210, 3-Methyl-5-(8-oxo-5-(4-(piperidin-4-yloxy)phenyl)-6-thioxo-5,7-diazaspiro[3.4]octan-7-yl)picolinonitrile]
IC50 (AR-VP16 [1]): > 1000 nM | ARVP16 DNA Binding Assay (Agonist mode): Agonist? (AR-VP16 [2]): No (Agonist defined as a compound whose Emax in the ARVP16 DNA Binding Assay (Agonist mode) is >20x DMSO control)

N#Cc1ncc(N2C(=O)C3(CCC3)N(c3ccc(OC4CCNCC4)cc3)C2=S)cc1C(F)(F)F [Compound 211, 5-(8-Oxo-5-(4-(piperidin-4-yloxy)phenyl)-6-thioxo-5,7-diazaspiro[3.4]octan-7-yl)-3-(trifluoromethyl)picolinonitrile]
IC50 (AR-VP16 [1]): < 1000 nM | ARVP16 DNA Binding Assay (Agonist mode): Agonist? (AR-VP16 [2]): No (Agonist defined as a compound whose Emax in the ARVP16 DNA Binding Assay (Agonist mode) is >20x DMSO control)
